Experiments:
[1] = test system: T-cell-mediated TNFα production from human Mφ; experiment: T cell membrane-Mφ cell contact bioassay (activated T-cell mediated cytokine production); type: cell-based; conditions: anti-CD3/anti-CD28 activated T-cell membranes; CD14+ Mφ; FIG. 14
Description: Primary T cells or H9 cells were washed with cold PBS and cell pellets were resuspended in freshly made 1% paraformaldehyde at 5×10^6 cells/ml. Cells were fixed on ice for 2 hours, and then washed with 20× volume of cold PBS three times. Following the third wash, the cells were kept in PBS at 4° C. overnight to allow diffusion of paraformaldehyde. Cells were centrifuged and washed one more time. The fixed T cells were resuspended in medium at 1×10^7 cells/ml and dispensed into a 96 well U bottom plate at about 1×10^6/ml THP-1 cells 100 μl per well. Primary T cells or H9 cells (100 μl per well) were added at 8×, 4×, and 2×10^6 cells/ml. The plates were incubated at 37° C., in humidified 5% CO2 for 48 hours. Plates were centrifuged at 1,500 rpm for 5 minutes and supernatant (120 μl) transferred into a fresh plate. The supernatant was stored at −20° C. until used. […]
Using the T cell membrane-Mφ cell contact bioassay, small molecule antagonists were identified that differentially block anti-CD3/anti-CD28 activated T-cell mediated—but not LPS stimulated—TNFα and IL-1β production from peripheral blood resident CD14^+ Mφ. Several kinase inhibitors were selected and assessed for the effects of these compounds in blocking TNFα and/or IL-1β production using a validated T-cell membrane-Mφ contact bioassay. […]

[2] = test system: Murine Collagen-Induced Arthritis; experiment: Murine Collagen-Induced Arthritis study; type: in vivo, mice; conditions: 50 mg/kg P.O. once per day beginning at day +1; day +13 after induction; FIG. 18
Description: Mice were immunized with CII+CFA on day 0 and boosted on day 21 with CII+IFA. A total of 10 DBA female mice per group were used. Drugs were administered as shown and started on the first day of initial signs of paw swelling/arthritis. Mean arthritis score (see data below) was assessed according to the procedure of Bendele et al., Arthritis & Rheumatism, 2000, 43(12), pp 2648-2659. […] Mice were treated 8 days after showing signs of collagen induced arthritis.
FIG. 18 is a joint histopathology of representative mice. In FIG. 18, panel A denotes a knee joint obtained from a DBA mouse with collagen-induced arthritis treated with an isotype-control rat-anti-mouse MAb (negative control) showing that […] over the course of this control treatment.

[3] = test system: LPS-stimulated TNFα and IL-1β production; experiment: LPS-stimulated Mφ cytokine production; type: cell-based, human; conditions: FIG. 14
Excerpt: Using the T cell membrane-Mφ cell contact bioassay, small molecule antagonists were identified that differentially block anti-CD3/anti-CD28 activated T-cell mediated—but not LPS stimulated—TNFα and IL-1β production from peripheral blood resident CD14^+ Mφ. Several kinase inhibitors were selected and assessed for the effects of these compounds in blocking TNFα and/or IL-1β production using a validated T-cell membrane-Mφ contact bioassay. […] Therefore, the activated T-cell membrane-Mt contact bioassay using human T-cells and Mφ can be used to establish high-throughput screens with recombinant TCISM (once identified and cloned) to identify orally-active, small molecule antagonists that specifically target adaptive, but not LPS-mediated, innate immunity. Some orally active, small molecule TNFα and/or IL-1β inhibitors which interfere specifically with T-cell mediated Mφ activation, leading to enhanced cytokine production but not LPS-mediated Mφ cytokine release, have a favorable therapeutic/side effect profile in T-cell mediated skin diseases such as Ps.

C[S+]([O-])c1ccccc1-n1cnc(-c2ccc(F)cc2)c1-c1ccncc1 (stereo not drawn) [Compound C]
Inhibition of T-cell-mediated TNFα production from human Mφ [1]: completely inhibit | Joint histopathology (knee joint inflammation) [2]: reduced inflammation | Effect on LPS-stimulated TNFα and IL-1β production [3]: without having any significant effect

— patent US20100168210A1, “T-Cell Cytokine-Inducing Surface Molecules and Methods of Use” (priority 2007, published 2010)
